Values of other authors in US9199980B2, “Compounds” (CHIESI FARMACEUTICI S.p.A., priority 2012, dated 2015).

Legend:
[1] = tested on: smoking model of COPD in mice
[2] = patients with severe disease, frequent exacerbations and mucus hypersecretion

**Q.** Which “reduction of the numbers of neutrophils in sputum” value (COPD patients; COPD patients, oral, given over 4 weeks) does the source give for O=C(Nc1c(Cl)cncc1Cl)c1ccc(OC(F)F)c(OCC2CC2)c1 [roflumilast] here?
**A.** 36%

**Q.** And the “improvement of FEV 1” value (COPD patients; [2])?
**A.** approximately 50 ml

**Q.** What about the reduction of exacerbation (COPD patients; [2]) of the same molecule?
**A.** about 15%

**Q.** And the “effect on lung inflammation and emphysema” value [1]?
**A.** inhibits lung inflammation and emphysema
